How the values were obtained:
[1] = Plasma and urine pharmacokinetics (HPLC-UV) in patients after 60-min IV infusion; assay type: in vivo, human; settings: patients who received 12.2 mg m-2 (and above) fostriecin
Description: Fostriecin (CI-920) is a topoisomerase (topo) II catalytic activity inhibitor (Boritzki et al, 1988) (Figure 1). This novel class of topo II-targeting drugs is considered of potential value for treatment of patients with tumours resistant to classic topo II poisons, including anthracyclines and podophyllotoxins (Cummings and Smyth, 1993). The nuclear enzyme topo II is essential for the regulation of DNA conformation (reviewed in Osheroff et al, 1991). Central in its action is the formation of a complex with DNA. Stabilization of this complex by topo II poisons induces DNA damage and cell death (Froelich-Ammon and Osheroff, 1995). Decreased complex formation due to decreased topo II levels is considered to be an important mechanism of tumour-resistance to topo II poisons (Beck and Danks, 1991). The topo II catalytic inhibitor fostriecin is expected to have increased activity against tumour cells with low topo II levels and this was confirmed in in vitro studies (De Jong et al, 1991). […] Because of increased toxi- city of fostriecin in dogs compared to mice, a dose below one-third of the one-tenth mouse equivalent LD10, 2 mg m-2 day-1, was chosen as starting dose in humans (Clinical Brochure Fostriecin, 1991). […] We also performed an analysis of the human pharmacokinetics of fostriecin and ex vivo experiments to investigate if the plasma drug concentrations achieved were sufficient to inhibit a tenipo- side-resistant tumour cell line. The maximum tolerated dose (MTD) of fostriecin could not be established because drug supply was stopped prematurely. However, results of this study may provide a basis for continued clinical development of this agent. PATIENTS AND METHODS Patient selection, drug administration and evaluation Patient eligibility criteria were: histologically confirmed diagnosis of a solid tumour, no longer amenable to established forms of treatment; age 18-75 years; Eastern Cooperative Oncology Group (ECOG) performance status 2; life expectancy 12 weeks; no Phase I and pharmacokinetic study of the topoisomerase II catalytic inhibitor fostriecin RS de Jong1, NH Mulder1, DRA Uges2, DTh Sleijfer1, FJP Hoppener4, HJM Groen3, PHB Willemse1, WTA van der Graaf1 and EGE de Vries1 Departments of 1Medical Oncology, 2Pharmacy and Toxicology, and 3Pulmonary Diseases, University Hospital Groningen, The Netherlands; 4EORTC New Drug Development Office, Amsterdam, The Netherlands Summary We conducted a phase I and pharmacokinetic study of the topoisomerase II catalytic inhibitor fostriecin. Fostriecin was administered intravenously over 60 min on days 1-5 at 4-week intervals. Dose was escalated from 2 mg m-2 day-1 to 20 mg m-2 day-1 in 20 patients. Drug pharmacokinetics was analysed with high performance liquid chromatography with UV-detection. Plasma collected during drug administration was tested in vitro for growth inhibition of a teniposide-resistant small-cell lung cancer (SCLC) cell line. The predominant toxicities were elevated liver transaminases (maximum common toxicity criteria (CTC) grade 4) and serum creatinine (maximum CTC grade 2). […] Duration of elevated alanine-amino transferase (ALT) was dose-limiting in one patient at 20 mg m-2. Other frequent toxicities were grade 1-2 nausea/vomiting, fever and mild fatigue. […] A metabolite, most probably dephosphorylated fostriecin, was detected in plasma and urine. […] However, further escalation seems possible and is warranted to achieve potentially effective drug levels. Fostriecin has a short plasma half-life and longer duration of infusion should be considered. […]

GLC4/VM20x = test system: GLC4/VM20x; parameters: method as in Withoff et al, 1996; settings: ref Withoff et al, 1996; cited from earlier work

Row | SMILES | metabolite in plasma and urine [1] | acquired resistance of GLC4/VM20x compared to GLC4 (GLC4/VM20x)
1 | C[C@@](O)(/C=C/[C@H]1CC=CC(=O)O1)[C@H](O)C[C@@H](O)\C=C/C=C\C=C\CO [dephosphorylated fostriecin] | detected | –
2 | COc1cc([C@@H]2c3cc4c(cc3[C@@H](O[C@@H]3O[C@@H]5CO[C@@H](c6cccs6)O[C@H]5[C@H](O)[C@H]3O)[C@H]3COC(=O)[C@H]23)OCO4)cc(OC)c1O [teniposide, reference compound] | – | 20 fold

— publication PMC2362650, “Phase I and pharmacokinetic study of the topoisomerase II catalytic inhibitor fostriecin” (British Journal of Cancer, 1999)
